# Assay results: paper PMC4912077 (PLoS ONE, 2016)
# “And” between values parts separate entries of the source, which are not always exact repeats. Equal values may be shown once. Where a name gives a salt, the structure may show the parent alone.
# Assays:
# [1] = test system: PCP site within the NMDAR channel;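 note: IC50 by nonlinear regression of percent specific binding versus log concentration, Ki from IC50 via Cheng-Prusoff, raw counts in CPM, duplicates repeated at least three times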
# Protocol: (§1) The reaction was terminated by vacuum filtration using a 24 well cell harvester (Brandel, Gaithersburg, MD) over presoaked GF/B glass fiber filters (Brandel, Gaithersburg, MD). Filters were washed with room temperature assay buffer (3 x 5 mL). […] IC50 values were determined in Graphpad Prism 5.0 using non-linear regression with log-concentration plotted against percent specific binding. […] Ki values were calculated using the equation of Cheng and Prusoff [24]. […] Protein concentration was determined via the Bradford method using Coomassie protein assay reagent (Sigma, USA) [25] with rat albumin (Sigma, USA) as standard. Experiments were performed in duplicate and repeated a minimum of three times.
# [2] = target: PCP site within the NMDAR channel; test: NMDAR binding, [3H]-MK-801 displacement in rat forebrain homogenate; conditions: for Ki: read-out: Ki ± SEM, [3H]-(+)-MK-801, rat forebrain, Cheng-Prusoff; for [3H]-MK-801 binding counts (Count1-3): raw counts, three counts;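 for all read-outs here: IC50 by nonlinear regression of percent specific binding versus log concentration, Ki from IC50 via Cheng-Prusoff, raw counts in CPM, duplicates repeated at least three times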
# Protocol: as §1
SMILES,IC50 [1] [nM],Ki [2] [nM],"[3H]-MK-801 binding counts (Count1-3) ([2]; Assay 6, memantine concentration 1.00E-04)","[3H]-MK-801 binding counts (Count1-3) ([2]; Assay 6, memantine concentration 1.00E-05)","[3H]-MK-801 binding counts (Count1-3) ([2]; Assay 6, memantine concentration 1.00E-06)","[3H]-MK-801 binding counts (Count1-3) ([2]; Assay 6, memantine concentration 1.00E-07)","[3H]-MK-801 binding counts (Count1-3) ([2]; Assay 6, memantine concentration 1.00E-08)","[3H]-MK-801 binding counts (Count1-3) ([2]; Assay 6, memantine concentration 1.00E-09)","[3H]-MK-801 binding counts (Count1-3) ([2]; Assay 6, memantine concentration 1.00E-10)","[3H]-MK-801 binding counts (Count1-3) ([2]; Assay 6 duplicate, memantine concentration 1.00E-04)","[3H]-MK-801 binding counts (Count1-3) ([2]; Assay 6 duplicate, memantine concentration 1.00E-05)","[3H]-MK-801 binding counts (Count1-3) ([2]; Assay 6 duplicate, memantine concentration 1.00E-06)","[3H]-MK-801 binding counts (Count1-3) ([2]; Assay 6 duplicate, memantine concentration 1.00E-07)","[3H]-MK-801 binding counts (Count1-3) ([2]; Assay 6 duplicate, memantine concentration 1.00E-08)","[3H]-MK-801 binding counts (Count1-3) ([2]; Assay 6 duplicate, memantine concentration 1.00E-09)","[3H]-MK-801 binding counts (Count1-3) ([2]; Assay 6 duplicate, memantine concentration 1.00E-10)"
"CNC1(c2ccccc2Cl)CCCCC1=O (stereo not drawn) [Ketamine, ketamine, reference compound]",508 ± 30.1,324 ± 19.2,–,–,–,–,–,–,–,–,–,–,–,–,–,–
"CC12CC3CC(C)(C1)CC(N)(C3)C2 [Memantine, memantine hydrochloride]",594 ± 41.3,378 ± 26.3,54.75 and 56.13 and 57.01,80 and 85.76 and 84.26,302 and 309.15 and 302.79,630.88 and 668.92 and 629.83,740.13 and 745.68 and 749.23,755.01 and 781.68 and 787.36,758.88 and 769.56 and 771.23,49.38 and 49.13 and 46.88,91.38 and 89.51 and 86.76,307.63 and 313.65 and 307.54,637.88 and 639.55 and 638.34,730.14 and 762.94 and 750.86,757.26 and 761.06 and 761.99,762.51 and 773.44 and 773.61
